Assay results reported in ChEMBL document CHEMBL3244292, “Imidazo[4,5-f]quinolines. 2. A series of 9-(substituted amino)imidazo[4,5-f]quinolines as antitapeworm agents” (1977).
Calls of active or inactive are those of the source. No cut-off for these calls is given here.

Tests used:
Type in all cases: functional
Rodentolepis nana [1] = experiment: Anthelmintic activity against Hymenolepis nana infected in mouse assessed as reduction in worm burden at 100 mg/kg administered bid for 3 days relative to control; parameters: scale not given: the % may be the effect or the level left
Rodentolepis nana [2] = experiment: Anthelmintic activity against Hymenolepis nana infected in mouse assessed as reduction in worm burden at 50 mg/kg administered bid for 3 days relative to control
Rodentolepis nana [3] = experiment: Anthelmintic activity against Hymenolepis nana infected in mouse assessed as reduction in worm burden at 300 mg/kg administered bid for 3 days relative to control; parameters: scale not given: the % may be the effect or the level left
Rodentolepis nana [4] = experiment: Anthelmintic activity against Hymenolepis nana infected in mouse assessed as reduction in worm burden at 25 mg/kg administered bid for 3 days relative to control

Row | Structure (SMILES) | Activity (Rodentolepis nana [1]) | Activity (Rodentolepis nana [2]) | Activity (Rodentolepis nana [3]) [%] | Activity (Rodentolepis nana [4])
1 | Cc1cc(Nc2ccc3ccccc3c2)c2c(ccc3nc[nH]c32)n1 | 72% | inactive |  | 
2 | COc1cc(Nc2cc(C)nc3ccc4nc[nH]c4c23)cc(OC)c1OC | 70% | inactive |  | 
3 | Cc1cc(Nc2ccc3c(c2)OCO3)c2c(ccc3nc[nH]c32)n1 | inactive |  | 100 | 
4 | Cc1cc(Nc2cccc3ccccc23)c2c(ccc3nc[nH]c32)n1 | 100% | inactive |  | 
5 | Cc1cc(Nc2ccc(N3CCCCC3)c(Cl)c2)c2c(ccc3nc[nH]c32)n1 | 100% | 80% |  | inactive
6 | CCCC(=O)c1ccc(Nc2cc(C)nc3ccc4nc[nH]c4c23)cc1 | inactive |  | 100 | 
7 | CCCCc1ccc(Nc2cc(-c3ccccc3)nc3ccc4nc[nH]c4c23)cc1 | inactive |  | 69 | 
8 | Cc1cc(Nc2ccccc2-c2ccccc2)c2c(ccc3nc[nH]c32)n1 | inactive |  | 100 | 
9 | CCc1ccc(Nc2cc(C)nc3ccc4nc[nH]c4c23)cc1Cl | 100% | 93% |  | inactive
10 | Cc1cc(Nc2ccc(I)cc2)c2c(ccc3nc[nH]c32)n1 | 84% | inactive |  | 
11 | Cc1cc(Nc2ccc(F)c(Cl)c2)c2c(ccc3nc[nH]c32)n1 | 82% | inactive |  | 
12 | Cc1cc(Nc2ccc(Br)cc2)c2c(ccc3nc[nH]c32)n1 | 61% | inactive |  | 
13 | Cc1cc(Nc2cccc(Nc3ccc(N4CCCCC4)nc3)c2)c2c(ccc3nc[nH]c32)n1 | inactive |  | 100 | 
14 | Cc1cc(Nc2ccc(-c3ccccc3)cc2)c2c(ccc3nc[nH]c32)n1 | 100% | 94% |  | inactive
15 | Cc1cc(Nc2ccc(/N=N\c3ccccc3)cc2)c2c(ccc3nc[nH]c32)n1 | inactive |  | 100 | 
16 | CCOc1ccc(OC)cc1Nc1cc(C)nc2ccc3nc[nH]c3c12 | 100% | 76% |  | inactive
17 | CCN(CC)CCOc1ccc(Nc2cc(C)nc3ccc4nc[nH]c4c23)cc1 | inactive |  | 100 | 
18 | COc1cccc(Nc2cc(C)nc3ccc4[nH]cnc4c23)c1 | 73% | inactive |  | 
19 | Cc1cc(Nc2ccc(Oc3ccccc3)cc2)c2c(ccc3nc[nH]c32)n1 | 100% | 66% |  | inactive
20 | CCOc1cc(OCC)c(OCC)cc1Nc1cc(C)nc2ccc3nc[nH]c3c12 | 89% | 80% |  | inactive
21 | Cc1cc(Nc2ccc(C)c([N+](=O)[O-])c2)c2c(ccc3nc[nH]c32)n1 | inactive |  | 83 | 
22 | COc1ccc(Nc2cc(C)nc3ccc4nc[nH]c4c23)cc1OC | 73% | inactive |  | 
23 | Cc1cc(Nc2ccc(N3CCN(C)CC3)c(Cl)c2)c2c(ccc3nc[nH]c32)n1 | inactive |  | 100 | 
24 | COc1ccc(Nc2cc(C)nc3ccc4nc(C)[nH]c4c23)cc1 | inactive |  | 100 | 

Row | Structure (SMILES) | Activity (Rodentolepis nana [1]) | Activity (Rodentolepis nana [2]) | Activity (Rodentolepis nana [3]) [%] | Activity (Rodentolepis nana [4])
25 | CCN(CC)c1ccc(Nc2cc(C)nc3ccc4nc[nH]c4c23)cc1 | 79% | inactive |  | 
26 | CCC(=O)c1ccc(Nc2cc(C)nc3ccc4nc[nH]c4c23)cc1 | 75% | 78% |  | inactive
27 | CCCCOc1ccc(Nc2cc(C)nc3ccc4nc[nH]c4c23)cc1OCCCC | 100% | 95% |  | inactive
28 | COc1ccc(Nc2cc(-c3ccccc3)nc3ccc4nc[nH]c4c23)cc1 | 66% | inactive |  | 
29 | CCCCOc1ccc(Nc2cc(C)nc3ccc4[nH]cnc4c23)cc1 | inactive |  | 100 | 
30 | COc1ccc(Nc2cccc(Nc3cc(C)nc4ccc5nc[nH]c5c34)c2)cn1 | 100% | 94% |  | inactive
31 | Cc1cc(Nc2ccc(Cl)cc2C)c2c(ccc3nc[nH]c32)n1 | 100% | inactive |  | 
32 | CCOc1ccc(OC)c(Nc2cc(C)nc3ccc4nc[nH]c4c23)c1 | 100% | 89% |  | inactive
33 | CCOc1ccc(OCC)c(Nc2cc(C)nc3ccc4nc[nH]c4c23)c1 | 100% | 100% |  | inactive
34 | Cc1cc(Nc2ccccc2)c2c(ccc3nc[nH]c32)n1 | 40% |  |  | 
35 | CCOc1cc(Nc2cc(C)nc3ccc4nc[nH]c4c23)c(OCC)cc1Cl | 100% | 100% |  | inactive
36 | COc1ccc(OC)c(Nc2cc(C)nc3ccc4nc[nH]c4c23)c1 | 100% | inactive |  | 
37 | COc1ccc(Nc2cc(C)nc3ccc4nc[nH]c4c23)cc1 | 64% | inactive |  | 
38 | COc1cc(OC)c(Nc2cc(C)nc3ccc4nc[nH]c4c23)cc1Cl | 85% | 82% |  | inactive
39 | Cc1cc(Nc2ccc(C)c(Cl)c2)c2c(ccc3nc[nH]c32)n1 | 94% | 90% |  | inactive
40 | CSc1ccc(Nc2cc(C)nc3ccc4nc[nH]c4c23)cc1 | 100% | 62% |  | 
41 | COc1ccc(CNc2cccc(Nc3cc(C)nc4ccc5nc[nH]c5c34)c2)cc1 | inactive |  | 60 | 
42 | Cc1cc(Nc2ccc(N(C)C)cc2)c2c(ccc3nc[nH]c32)n1 | 100% | inactive |  | 
43 | Cc1cc(Nc2ccc(Cl)c(C(F)(F)F)c2)c2c(ccc3nc[nH]c32)n1 | 84% | 87% |  | inactive
44 | CCCCc1ccc(Nc2cc(C)nc3ccc4[nH]cnc4c23)cc1 | inactive |  | 100 | 
45 | Cc1cc(Nc2cccc(N(C)C)c2)c2c(ccc3nc[nH]c32)n1 | 100% | 87% |  | inactive
46 | CCCCCOc1ccc(Nc2cc(C)nc3ccc4nc[nH]c4c23)cc1OCCCCC | 63% | inactive |  | 
47 | Cc1cc(Nc2ccc(Cl)c(Cl)c2)c2c(ccc3nc[nH]c32)n1 | 65% | inactive |  | 
48 | COc1ccc(Nc2cc(C)nc3ccc4nc(-c5ccccc5)[nH]c4c23)cc1 | 94% | inactive |  | 

Row | Structure (SMILES) | Activity (Rodentolepis nana [1]) | Activity (Rodentolepis nana [2]) | Activity (Rodentolepis nana [3]) [%] | Activity (Rodentolepis nana [4])
49 | Cc1cc(Nc2ccc(N3CCCCC3)cc2)c2c(ccc3nc[nH]c32)n1 | 64% | 62% |  | inactive
50 | CCC(C)c1ccc(Nc2cc(C)nc3ccc4nc[nH]c4c23)cc1 (configuration not stated) | 100% | inactive |  | 
51 | Cc1cc(Nc2ccc(OC(C)C)c(OC(C)C)c2)c2c(ccc3nc[nH]c32)n1 | 100% | 94% |  | inactive
52 | Cc1ccc(Nc2cc(C)nc3ccc4nc[nH]c4c23)cc1 | inactive |  | 100 | 
53 | Cc1ccc(Cl)c(Nc2cc(C)nc3ccc4nc[nH]c4c23)c1 | inactive |  | 98 | 
54 | Cc1cc(Nc2cccc(Nc3ccccc3)c2)c2c(ccc3nc[nH]c32)n1 | inactive |  | 81 | 
55 | Cc1cc(Nc2ccc(C(C)C)cc2)c2c(ccc3nc[nH]c32)n1 | 100% | 53% |  | inactive
56 | Cc1cc(Nc2ccc(OCc3ccccc3)cc2)c2c(ccc3nc[nH]c32)n1 | 81% | 64% |  | 
57 | Cc1cc(Nc2ccc(N(C)C)c(Cl)c2)c2c(ccc3nc[nH]c32)n1 | 71% | inactive |  | 
58 | Cc1cc(Nc2ccc(N3CCN(C)CC3)cc2)c2c(ccc3nc[nH]c32)n1 | inactive |  | 80 | 
59 | COc1ccccc1Nc1cc(C)nc2ccc3nc[nH]c3c12 | 66% | inactive |  | 
60 | Cc1cc(Nc2cccc(Cl)c2C)c2c(ccc3nc[nH]c32)n1 | 100% | 94% |  | inactive
61 | COc1cc(Cl)ccc1Nc1cc(C)nc2ccc3nc[nH]c3c12 | 52% | inactive |  | 
62 | CC(=O)c1cccc(Nc2cc(C)nc3ccc4nc[nH]c4c23)c1 | 96% | inactive |  | 
63 | Cc1cc(Nc2cccc(C(F)(F)F)c2)c2c(ccc3nc[nH]c32)n1 | inactive |  | 100 | 
64 | CCOc1ccc(Nc2cc(C)nc3ccc4nc[nH]c4c23)cc1Cl | 100% | 50% |  | inactive
65 | Cc1cc(Nc2cccc(Nc3ccc(N4CCN(C)CC4)nc3)c2)c2c(ccc3nc[nH]c32)n1 | inactive |  | 64 | 
66 | CCc1cc(Nc2ccc(OC)cc2)c2c(ccc3nc[nH]c32)n1 | 46% | inactive |  | 
67 | CCOc1ccc(Nc2cc(C)nc3ccc4nc[nH]c4c23)cc1 | 100% | inactive |  | 
68 | CCOc1ccc(Nc2cc(C)nc3ccc4nc[nH]c4c23)cc1OCC | 100% | 84% |  | inactive
69 | CCCCc1ccc(Nc2cc(C)nc3ccc4nc[nH]c4c23)cc1Cl | 100% | 100% |  | 65%
70 | CSc1ccccc1Nc1cc(C)nc2ccc3nc[nH]c3c12 | inactive |  | 93 | 
71 | CSc1cccc(Nc2cc(C)nc3ccc4nc[nH]c4c23)c1 | 100% | inactive |  | 
72 | Cc1cc(Nc2ccc(N3CCCC3)c(Cl)c2)c2c(ccc3nc[nH]c32)n1 | 100% | 46% |  | inactive
